Molecular target: PARP7 (Homo sapiens (Human), UniProt Q7Z3E1)
Experiment: Enzymatic assay for inhibition of PARP7: TR-FRET displacement of biotinylated Probe A from the TIPARP active site
Format: binding
Conditions: Table A-1
Procedure, shortened: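 Displacement of biotinylated Probe A from TIPARP was measured as the 665/615 nm time-resolved FRET ratio (excitation 320 nm, 90 μs delay) after a further 30 min at 25 °C. Inhibition across compound concentrations was fitted by dose-response regression, with the Hill slope free or fixed at 1 (3-parameter fit).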

PARP7, sequence (Q7Z3E1 whole entry): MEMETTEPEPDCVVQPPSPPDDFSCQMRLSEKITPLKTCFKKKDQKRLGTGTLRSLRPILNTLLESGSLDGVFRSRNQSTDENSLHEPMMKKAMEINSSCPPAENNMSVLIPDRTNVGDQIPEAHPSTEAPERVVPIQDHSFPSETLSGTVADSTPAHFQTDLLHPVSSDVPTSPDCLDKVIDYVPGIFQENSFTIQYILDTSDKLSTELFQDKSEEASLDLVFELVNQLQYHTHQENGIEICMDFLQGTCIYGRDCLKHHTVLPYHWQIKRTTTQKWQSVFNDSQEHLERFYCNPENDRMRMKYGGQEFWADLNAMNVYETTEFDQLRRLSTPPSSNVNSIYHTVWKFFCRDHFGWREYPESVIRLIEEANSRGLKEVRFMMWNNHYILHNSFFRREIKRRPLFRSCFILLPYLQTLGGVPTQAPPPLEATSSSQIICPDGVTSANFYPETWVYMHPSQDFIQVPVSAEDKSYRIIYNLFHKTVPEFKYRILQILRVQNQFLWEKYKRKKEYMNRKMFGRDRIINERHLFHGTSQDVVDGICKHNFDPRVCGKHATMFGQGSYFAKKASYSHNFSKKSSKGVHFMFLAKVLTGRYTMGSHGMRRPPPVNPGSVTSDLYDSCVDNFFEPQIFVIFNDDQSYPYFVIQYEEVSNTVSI

Structure (SMILES) | IC50
N#Cc1ccc(N2CCN(C(=O)c3ccnc(OC[C@H]4c5ccccc5CN4c4cn[nH]c(=O)c4C(F)(F)F)n3)CC2)nc1 [Example 38 Isomer B, 6-[4-[(2-[[(1R)-2-[6-Oxo-5-(trifluoromethyl)-1,6-dihydropyridazin-4-yl]-2,3-dihydro-1H-isoindol-1-yl]methoxy]pyrimidin-4-yl)carbonyl]piperazin-1-yl]pyridine-3-carbonitrile] | < 100 nM
CC(=O)N1CCC(COc2cc3c(cc2F)CN(c2cn[nH]c(=O)c2C(F)(F)F)C3)CC1 [Example 21, 5-[5-[(1-acetylpiperidin-4-yl)methoxy]-6-fluoro-2,3-dihydro-1H-isoindol-2-yl]-4-(trifluoromethyl)-2,3-dihydropyridazin-3-one] | < 100 nM
CN(C[C@@H]1CCCN1c1cn[nH]c(=O)c1C(F)(F)F)C(=O)CCN1CCN(c2ccc(C#N)cn2)CC1 [Example 138, 3-[4-(5-cyanopyridin-2-yl)piperazin-1-yl]-N-methyl-N-[[(2S)-1-[6-oxo-5-(trifluoromethyl)-1,6-dihydropyridazin-4-yl]pyrrolidin-2-yl]methyl]propanamide] | ≥ 1000 nM
CN(CC[C@@H]1CCCN1c1cn[nH]c(=O)c1C(F)(F)F)CC(=O)N1CCN(c2ccc(C#N)cn2)CC1 [Example 91] | 100 to 1000 nM
O=C(c1cccc(OC[C@H]2c3ccccc3CN2c2cn[nH]c(=O)c2C(F)(F)F)c1)N1CCN(c2ncc(C(F)(F)F)cn2)CC1 [Example 391, (R)-4-(Trifluoromethyl)-5-(1-((3-(4-(5-(trifluoromethyl)pyrimidin-2-yl)piperazine-1-carbonyl)phenoxy)methyl)isoindolin-2-yl)pyridazin-3(2H)-one] | ≥ 1000 nM
CN(CCOc1cn[nH]c(=O)c1C(F)(F)F)CCC(=O)N1CCN(c2ccc(C#N)cn2)CC1 [Example 516] | < 100 nM
C[C@@H](COCCC(=O)N1CCN(c2ncc(C(F)(F)F)cn2)CC1)N(C)c1cn[nH]c(=O)c1Cl [Example 636, (S)-4-Chloro-5-(methyl(1-(3-oxo-3-(4-(5-(trifluoromethyl)pyrimidin-2-yl)piperazin-1-yl)propoxy)propan-2-yl)amino)pyridazin-3(2H)-one] | 100 to 1000 nM
N#Cc1ccc(N2CCN(C(=O)CCOCCOCC3CCN(c4cn[nH]c(=O)c4C(F)(F)F)C3)CC2)nc1 (centres unmarked) [Example 466, 6-(4-(3-(2-((1-(6-Oxo-5-(trifluoromethyl)-1,6-dihydropyridazin-4-yl)pyrrolidin-3-yl)methoxy)ethoxy)propanoyl)piperazin-1-yl)nicotinonitrile] | < 100 nM
N#Cc1ccc(N2CCN(C(=O)CCOCc3cccc4c3CN(c3cn[nH]c(=O)c3C(F)(F)F)C4)CC2)nc1 [Example 495, 6-(4-(3-((2-(6-Oxo-5-(trifluoromethyl)-1,6-dihydropyridazin-4-yl)isoindolin-4-yl)methoxy)propanoyl)piperazin-1-yl)nicotinonitrile] | < 100 nM
NCc1cccc2c1CN(c1cn[nH]c(=O)c1C(F)(F)F)C2 [Example 221, 5-(4-(Aminomethyl)isoindolin-2-yl)-4-(trifluoromethyl)pyridazin-3(2H)-one] | ≥ 1000 nM
O=C(CCOCCOc1cn[nH]c(=O)c1Cl)N1CCN(c2ncc(C(F)(F)F)cn2)CC1 [Example 520, 4-Chloro-5-[2-(3-oxo-3-[4-[5-(trifluoromethyl)pyrimidin-2-yl]piperazin-1-yl]propoxy)ethoxy]-2,3-dihydropyridazin-3-one] | < 100 nM
N#Cc1ccc(N2CCN(C(=O)C/C=C\OC[C@H]3c4ccccc4CN3c3cn[nH]c(=O)c3C(F)(F)F)CC2)nc1 (single isomer, unassigned; isomer b) [Example 79 Isomer B] | < 100 nM
C[C@@H](COC[C@@H]1CCCN1c1cn[nH]c(=O)c1C(F)(F)F)C(=O)N1CCN(c2ccc(C#N)cn2)CC1 (single isomer, unassigned) [Example 94 Isomer B] | < 100 nM
N#Cc1ccc(OC2CCC(NC(=O)COC[C@@H]3CCCN3c3cn[nH]c(=O)c3C(F)(F)F)CC2)nc1 (stereo partly drawn) [Example 47, N-[4-[(5-cyanopyridin-2-yl)oxy]cyclohexyl]-2-[[(2S)-1-[6-oxo-5-(trifluoromethyl)-1,6-dihydropyridazin-4-yl]pyrrolidin-2-yl]methoxy]acetamide] | < 100 nM
N#Cc1ccc(N2CCN(C(=O)c3cccc(OC[C@@H]4CCCN4c4cn[nH]c(=O)c4C(F)(F)F)c3)CC2=O)nc1 [Example 34, 6-[2-oxo-4-[(3-[[(2S)-1-[6-oxo-5-(trifluoromethyl)-1,6-dihydropyridazin-4-yl]pyrrolidin-2-yl]methoxy]phenyl)carbonyl]piperazin-1-yl]pyridine-3-carbonitrile] | < 100 nM
COC[C@@H](COCCC(=O)N1CCN(c2ccc(C#N)cn2)CC1)Nc1cn[nH]c(=O)c1C(F)(F)F (single isomer, unassigned) [Example 518B] | < 100 nM

Structure (SMILES) | IC50
CN(C)C1CCN(c2cccc3c2CN(c2cn[nH]c(=O)c2C(F)(F)F)C3)CC1 [Example 281, 5-(4-(4-(Dimethylamino)piperidin-1-yl)isoindolin-2-yl)-4-(trifluoromethyl)pyridazin-3(2H)-one] | 100 to 1000 nM
N#Cc1ccc(N2CCN(C(=O)COCCCOc3cn[nH]c(=O)c3C(F)(F)F)CC2)nc1 [Example 517, 6-(4-(2-(3-(6-Oxo-5-(trifluoromethyl)-1,6-dihydropyridazin-4-yloxy)propoxy)acetyl)piperazin-1-yl)nicotinonitrile] | < 100 nM
C[C@@H](COCCC(=O)N1CCN(c2ncc(C(F)(F)F)cn2)CC1)N(C)c1cn[nH]c(=O)c1C(F)(F)F [Example 641, (S)-5-(Methyl(1-(3-oxo-3-(4-(5-(trifluoromethyl)pyrimidin-2-yl)piperazin-1-yl)propoxy)propan-2-yl)amino)-4-(trifluoromethyl)pyridazin-3(2H)-one] | 100 to 1000 nM
C[C@H](CSCCC(=O)N1CCN(c2ncc(C(F)(F)F)cn2)CC1)Nc1cn[nH]c(=O)c1C(F)(F)F [Example 703, (R)-5-((1-((3-Oxo-3-(4-(5-(trifluoromethyl)pyrimidin-2-yl)piperazin-1-yl)propyl)thio)propan-2-yl)amino)-4-(trifluoromethyl)pyridazin-3(2H)-one] | 100 to 1000 nM
O=c1[nH]ncc(N2Cc3cccc(OCCN4CCCCC4)c3C2)c1C(F)(F)F [Example 213, 5-(4-(2-(Piperidin-1-yl)ethoxy)isoindolin-2-yl)-4-(trifluoromethyl)pyridazin-3(2H)-one] | 100 to 1000 nM
CS(=O)(=O)c1ccc(N2CCN(C(=O)CCOC[C@@H]3CCCN3c3cn[nH]c(=O)c3C(F)(F)F)CC2)nc1 [Example 483, (S)-5-(2-((3-(4-(5-(Methylsulfonyl)pyridin-2-yl)piperazin-1-yl)-3-oxopropoxy)methyl)pyrrolidin-1-yl)-4-(trifluoromethyl)pyridazin-3(2H)-one] | < 100 nM
O=C(CCNC[C@@H]1c2ccccc2CN1c1cn[nH]c(=O)c1C(F)(F)F)N1CCN(c2ccc(C(F)(F)F)cn2)CC1 [Example 629, (S)-5-(1-(((3-Oxo-3-(4-(5-(trifluoromethyl)pyridin-2-yl)piperazin-1-yl)propyl)amino)methyl)isoindolin-2-yl)-4-(trifluoromethyl)pyridazin-3(2H)-one] | < 100 nM
N#Cc1ccc(N2CCN(C(=O)C[C@@H]3CC[C@@H]([C@@H]4CCCN4c4cn[nH]c(=O)c4C(F)(F)F)O3)CC2)nc1 [Example 141A, 6-(4-[2-[(2S,5S)-5-[(2S)-1-[6-oxo-5-(trifluoromethyl)-1,6-dihydropyridazin-4-yl]pyrrolidin-2-yl]oxolan-2-yl]acetyl]piperazin-1-yl)pyridine-3-carbonitrile] | < 100 nM
O=c1[nH]ncc(N2Cc3nccc(OC4CCNCC4)c3C2)c1C(F)(F)F [Example 9, 5-[4-(piperidin-4-yloxy)-5H,6H,7H-pyrrolo[3,4-b]pyridin-6-yl]-4-(trifluoromethyl)-2,3-dihydropyridazin-3-one] | 100 to 1000 nM
C[C@H](O)[C@@H](COCCC(=O)N1CCN(c2ncc(C(F)(F)F)cn2)CC1)Nc1cn[nH]c(=O)c1C(F)(F)F [Example 635, 5-(((2R,3S)-3-Hydroxy-1-(3-oxo-3-(4-(5-(trifluoromethyl)pyrimidin-2-yl)piperazin-1-yl)propoxy)butan-2-yl)amino)-4-(trifluoromethyl)pyridazin-3(2H)-one] | < 100 nM
N#Cc1c(OCCOCCC(=O)N2CCN(c3ncc(C(F)(F)F)cn3)CC2)cn[nH]c1=O [Example 553, 3-Oxo-5-[2-(3-oxo-3-[4-[5-(trifluoromethyl)pyrimidin-2-yl]piperazin-1-yl]propoxy)ethoxy]-2,3-dihydropyridazine-4-carbonitrile] | < 100 nM
O=c1[nH]ncc(N2Cc3ccc(O[C@@H]4CCCNC4)cc3C2)c1C(F)(F)F [Example 288, (R)-5-(5-(Piperidin-3-yloxy)isoindolin-2-yl)-4-(trifluoromethyl)pyridazin-3(2H)-one] | < 100 nM
O=c1[nH]ncc(N2Cc3cc(F)c(OCC4CCCNC4)cc3C2)c1C(F)(F)F (centres unmarked) [Example 44, 5-[5-fluoro-6-(piperidin-3-ylmethoxy)-2,3-dihydro-1H-isoindol-2-yl]-4-(trifluoromethyl)-2,3-dihydropyridazin-3-one] | < 100 nM
C[C@@H](COCCC(=O)N1CCN(c2ncc(C(C)(F)F)cn2)CC1)Nc1cn[nH]c(=O)c1C(F)(F)F [Example 707, (S)-5-((1-(3-(4-(5-(1,1-Difluoroethyl)pyrimidin-2-yl)piperazin-1-yl)-3-oxopropoxy)propan-2-yl)amino)-4-(trifluoromethyl)pyridazin-3(2H)-one] | < 100 nM
C[C@@H](OCCC(=O)N1CCN(c2ccc(C#N)cn2)CC1)[C@@H]1CCCN1c1cn[nH]c(=O)c1C(F)(F)F [Example 140A, 6-(4-[3-[(1R)-1-[(2S)-1-[6-oxo-5-(trifluoromethyl)-1,6-dihydropyridazin-4-yl]pyrrolidin-2-yl]ethoxy]propanoyl]piperazin-1-yl)pyridine-3-carbonitrile] | < 100 nM
O=c1[nH]ncc(N2Cc3cccc(OCC4CCCO4)c3C2)c1C(F)(F)F (centres unmarked) [Example 201, 5-(4-((Tetrahydrofuran-2-yl)methoxy)isoindolin-2-yl)-4-(trifluoromethyl)pyridazin-3(2H)-one] | < 100 nM
